Legend:
MMP2 = MMP2 activity by gelatin zymography in conditioned media of mouse peritoneal macrophages cultured on fibronectin; assay type: cell-based; settings: wild type and Arhgef1−/− macrophages; 20 mM aspirin or 28 μM L-655,240
Procedure: FIG. 12. Thromboxane receptor signaling is necessary for fibronectin-induced MMP9 production by macrophages and is attenuated by Arhgef1. A, representative gelatin zymograms of conditioned media from macrophages cultured on plastic (ctl) or FN and treated with 1.56 or 6.25 μM of the thromboxane receptor antagonist PTA2. Wild type (+/+) and Arhgef1^−/− (−/−) samples from separate zymograms are shown. B, quantitation of MMP9 activity as determined by densitometric analysis of zymograms in A. The results are representative of two independent experiments. C, representative zymograms from conditioned media from macrophages cultured on plastic or fibronectin and treated with 28 μM of the thromboxane receptor antagonist L-655,240. D, quantitation of MMP9 activity as determined by densitometric analysis of zymograms in C. The results are compiled from two independent experiments with n=4 for both wild type (open bars) and Arhgef1^−/− (black bars) samples. […] E, MMP2 activity was quantitated in conditioned media as previously described for MMP9. […] The data represent the means±S.E. F, MMP9 activity was quantitated as previously described and normalized to a percentage of fibronectin response for each genotype. […] G, relative Mmp9 expression was measured by qPCR in macrophages cultured on fibronectin in the presence of the thromboxane receptor agonist (U-46619, 10 nM), S1P (40 nM), or LPA (10 μM). […]

Mmp9 = Mmp9 expression by qPCR in mouse peritoneal macrophages cultured on fibronectin; assay type: cell-based; settings: wild type and Arhgef1-deficient macrophages on fibronectin; 40 nM S1P, 10 μM LPA, 6 μM PTXA2; 24 h
Procedure: FIG. 4. TP signaling is required for MMP9 production in vitro and in vivo. A) Macrophage Mmp9 expression after culture on fibronectin for 24 hrs in media/vehicle (−), 40 nM S1P, 10 μM LPA, 10 nM U-46619 (TP agonist) or 6 μM PTXA2 (TP antagonist). Data represent normalized mean±SE. B) Arhgef1−/− mice (n=16) were exposed to aerosolized PBS (n=16), 220 μM PTXA2 (n=6) or 190 μM U-46619 (n=10) for 20 minutes and BAL harvested 1 day later and MMP activity measured.
FIG. 12. Thromboxane receptor signaling is necessary for fibronectin-induced MMP9 production by macrophages and is attenuated by Arhgef1. A, representative gelatin zymograms of conditioned media from macrophages cultured on plastic (ctl) or FN and treated with 1.56 or 6.25 μM of the thromboxane receptor antagonist PTA2. Wild type (+/+) and Arhgef1^−/− (−/−) samples from separate zymograms are shown. B, quantitation of MMP9 activity as determined by densitometric analysis of zymograms in A. The results are representative of two independent experiments. C, representative zymograms from conditioned media from macrophages cultured on plastic or fibronectin and treated with 28 μM of the thromboxane receptor antagonist L-655,240. D, quantitation of MMP9 activity as determined by densitometric analysis of zymograms in C. The results are compiled from two independent experiments with n=4 for both wild type (open bars) and Arhgef1^−/− (black bars) samples. The data represent the means±S.E. *, p<0.05 Student's two-tailed t test compared with conditioned media from cells cultured on plastic. #, p<0.05 Student's two-tailed t test comparing conditioned media from wild type cells to Arhgef1^−/− cells cultured under identical conditions. $, p<0.05 Student's two-tailed t test compared with conditioned media from cells cultured on fibronectin. E, MMP2 activity was quantitated in conditioned media as previously described for MMP9. The results are compiled from four independent experiments with n=10 for wild type (open bars) and Arhgef1^−/− (black bars) samples cultured on either plastic or fibronectin. For cells treated with 20 mM aspirin, n=6 for wild type (open bars) and Arhgef1^−/− (black bars) samples. For cells treated with 28 μM L-655,240, n=4 for wild type (open bars) and Arhgef1^−/− (black bars) samples. The data represent the means±S.E. F, MMP9 activity was quantitated as previously described and normalized to a percentage of fibronectin response for each genotype. The cells were either untreated or treated with 0.5% Me2SO or 28 μM L-655,240. The results are compiled from two independent experiments with n=3 for all conditions and genotypes. The data represent the means±S.E. *, p<0.05 Student's two-tailed t test compared with conditioned media from cells cultured on fibronectin. G, relative Mmp9 expression was measured by qPCR in macrophages cultured on fibronectin in the presence of the thromboxane receptor agonist (U-46619, 10 nM), S1P (40 nM), or LPA (10 μM). […] Wild type (open bars, n=12, 6, 3, and 3 for fibronectin, +U-46619, +S1P, and +LPA, respectively) and Arhgef1^−/− (black bars, n=14, 6, 3, and 2, respectively) from at least two independent experiments. The data represent the means±S.E. *, p<0.05 Student's two-tailed t test compared with conditioned media from cells cultured on fibronectin, #, p<0.05 Student's two-tailed t test comparing conditioned media from wild type cells to Arhgef1^−/− cells cultured under identical conditions. […]

With `CC(=O)Oc1ccccc1C(=O)O` [aspirin] as the compound, how does the MMP2 activity (MMP2) read?
The MMP2 activity was “not affected”.

How did the Mmp9 expression (Mmp9) turn out when `CCCCC[C@@H](O)/C=C/[C@H]1C[C@H]2C[C@@H]([C@@H]1C/C=C\CCCC(=O)O)C2(C)C` (relative stereo) [PTXA2, (18-(1alpha,2beta(Z),3alpha(1E,3S*),5alpha))-7-(3-(3-Hydroxy-1-octenyl)-6,6-dimethylbicyclo(3.1.1)hept-2-yl)-5-heptenoic acid] was run?
The Mmp9 expression was “ablated Mmp9 expression”.
